Entries after “also recorded” stand apart in the source; their conditions may differ. Like-named read-outs stand apart in the source and are kept apart here.
Assays:
Aβ42 = target: T1, Aβ42 (Homo sapiens, UniProt P05067); test: ThT Aβ42 aggregation kinetics with 10% pre-formed fibril seeds (elongation dominant); assay type: biochemical; conditions: 2 μM Aβ42, 10-fold excess
T1 construct: The recombinant Aβ (M1-42) peptide; made in house; host or cells: E. coli BL21 Gold (DE3)
Method: Samples were then collected from the wells into low-binding tubes and sonicated for 2 min in a sonicator bath at room temperature. Under the considered conditions (i.e. 4 μM Aβ42), the monomer concentration is negligible at equilibrium (31). The final concentration of fibrils, in monomer equivalents, was considered equal to the initial concentration of monomer. Fibrils were then added to freshly prepared monomer in order to reach either 5% or 10% fibrils final concentration.
Assays were initiated by placing the 96-well plate at 37° C. under quiescent conditions in a plate reader (Fluostar Omega, Fluostar Optima or Fluostar Galaxy, BMGLabtech, Offenburg, Germany). The ThT fluorescence was measured through the bottom of the plate with a 440 nm excitation filter and a 480 nm emission filter. The ThT fluorescence was followed for three repeats of each sample. […]

[1] = test system: C. elegans GMC101 (Aβ-worm); test: C. elegans motility assay (body bends), Aβ-worm model; assay type: in vivo, Caenorhabditis elegans
Method: Standard conditions were used for Caenorhabditis elegans propagation at 20° C. (53). Briefly, animals were synchronized by hypochlorite bleaching, hatched overnight in M9 buffer, and subsequently cultured on nematode growth medium (NGM, USP agar) plates seeded with the E. coli strain OP50. Saturated cultures of OP50 were grown by inoculating 50 mL of LB medium with OP50 and incubating the culture for 16 h at 37° C. NGM plates were seeded with bacteria by adding 350 μl of saturated OP50 to each plate and leaving the plates at room temperature for 2-3 days. On day 3 after synchronization, animals were placed on NGM plates containing 5-fluoro-2′deoxy-uridine (FUDR) ([…], unless stated otherwise) to inhibit growth of offspring.
The following strains were used: dvls100[unc-54p::A-beta-1-42::unc-54 3′-UTR+mtl-2p::GFP] (GMC101). mtl-2p::GFP produces constitutive expression of GFP in intestinal cells. unc-54p::A-beta-1-42 expresses full-length human Aβ42 peptide in bodywall muscle cells that aggregates in vivo. Shifting L4 or young adult animals from 20 C° to 25 C° causes paralysis dvls15[pPD30.38 (unc-54 vector)+mtl-2::GFP (pCL26)] (CL2122), control strain for GMC101 (57). Phenotype apparently WT. C. elegans var Bristol (N2). Generation time is about 3 days. Brood size is about 350. Isolated from mushroom compost near Bristol, England. […]
All populations were cultured at 20° C. and developmentally synchronized from a 4 h egg-lay. At 64-72 h post egg-lay (time zero) individuals were shifted to 23° C. or 25° C., and body movement assessed over time as indicated. At different ages, animals were washed out of the plates with M9 and spread over an un-seeded 6 cm plate, after which their movements were recorded at 30 fps using a home-made microscopic setup, at 0.75× magnification, for 30 s or 1 min. 200 animals were counted per experiment unless stated otherwise. […]
Videos were elaborated using ImageJ (National Institutes of Health, Bethesda, Md., USA), and body bends were quantified using the wrMTrck plug-in (http://www.phage.dk/plugins/wrmtrck.html), developed by Jesper Søndergaard Pedersen.

[2] = test system: SH-SY5Y human neuroblastoma cells; assay type: cell-based; conditions: 0.5 μM Aβ42, 10 μM bexarotene
Method: Aβ42 oligomers are known to be toxic to cells leading to apoptosis and to cellular death. […] SH-SY5Y human neuroblastoma cells were cultured under standard conditions, at 37° C. in a humidified incubator with 5% CO2. Cells were seeded at a density of 25,000 per well in a white-walled, clear-bottomed 96-well plate and cultured for 24 h in MEM/F12(1:1)/10% Fetal Bovine Serum (FBS) (Gibco). The culture medium was then replaced with pre-warmed phenol red free DMEM without FBS into which the peptide samples or NaPO4 buffer were diluted 1:1. […] The aggregation reaction was set up as above except for the buffer from which NaN3 was removed due to its toxicity. […] All the specified time points correspond to Aβ42 in the lag phase in order to monitor inhibition at the early stage of the aggregation. […] The cells were cultured in the presence of the peptides, buffer and media for further 24 h before the cytotoxic effect was measured.
Cell medium diluted with the same buffer that was used in these experiments was included in some wells in order to evaluate the intrinsic fluorescence of the media and bexarotene.
For the positive control, staurosporine (1 μM) was added to the cells for 2 hours. Caspase-3/7 activity was measured using the Apo-ONE Homogeneous Caspase-3/7 assay (Promega). The fluorogenic caspase-3/7 substrate, rhodamine 110 bis-(N-CBZ-L-aspartyl-L-glutamyl-L-valyl-aspartic acid amide) was diluted 1:100 in the lysis buffer provided and added to the cell medium at a 1:1 ratio. The fluorescence was measured at excitation 480 nm/emission 520 nm in an Optima FluoStar plate reader. In each of the used plates, the toxicity was assessed according to a negative and a positive control.
For comparative purposes between different plates, we normalized the fluorescence values using a parabolic equation (y=ax^b), which corresponds to the evolution of the oligomers as a function of time. Negative and positive controls were set to 1 and 10, respectively. […] Statistical analyses were performed using GraphPad prism 6.0. Results are expressed as mean±SEM.

T1 sequence (P05067 672-713 limits assumed): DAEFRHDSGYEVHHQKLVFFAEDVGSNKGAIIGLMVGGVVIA

SMILES: C=C(c1ccc(C(=O)O)cc1)c1cc2c(cc1C)C(C)(C)CCC2(C)C [bexarotene]
- effect on aggregation kinetics with 10% fibril seeds (Aβ42): no effect was observed
- motility (frequency of body bends) of Aβ-worms ([1]; 10 μM, two bursts at L1 and L4 larval stages): maintained completely; also recorded: Complete recovery
- motility of Aβ-worms, concentration dependence ([1]; 5 to 10 μM added at larval stages): concentration-dependent maintenance
- effect on motility of Aβ-worms when added only at day 2 ([1]; added only at day 2): did not show any detectable effect
- incubation time after which detectable toxic Aβ42 species are formed in presence of compound ([2]; 37° C.): 7 h
- toxicity (caspase-3) of Aβ42 species in absence of bexarotene, higher than in its presence ([2]; aliquot after 0.3 h incubation): 65±5%
- toxicity (caspase-3) of Aβ42 species in absence of bexarotene, higher than in its presence ([2]; aliquot after 4 h incubation): 65±5%
- level of toxicity generated in the presence of bexarotene ([2]; aliquot after 7 h incubation): increased to a value similar to that observed in its absence

Source: patent publication US11536729B2, “Method of identifying novel protein aggregation inhibitors based on chemical kinetics” (Cambridge Enterprise Limited, priority 2016, dated 2022)
